Laboratory results published in ChEMBL document CHEMBL4011590, “Structure-activity relationship studies on 3,5-dinitrophenyl tetrazoles as antitubercular agents” (Eur J Med Chem, 2017).
In brackets after ≈: the same amount, converted by molar mass.

Legend:
[1] = test system: Mycobacterium tuberculosis; test: Antimycobacterial activity against Mycobacterium tuberculosis H37Rv CNCTC My 331/88 after 14 days by micromethod; type: functional; settings: H37Rv CNCTC My 331/88, 336 h
[2] = test system: Mycobacterium tuberculosis; test: Antimycobacterial activity against Mycobacterium tuberculosis H37Rv CNCTC My 331/88 after 21 days by micromethod; type: functional; settings: H37Rv CNCTC My 331/88, 504 h
Mycobacterium avium [3] = test: Antimycobacterial activity against Mycobacterium avium CNCTC My 330/80 after 14 days by micromethod; type: functional; settings: CNCTC My 330/80, 336 h
Mycobacterium avium [4] = test: Antimycobacterial activity against Mycobacterium avium CNCTC My 330/80 after 21 days by micromethod; type: functional; settings: CNCTC My 330/80, 504 h
Mycobacterium kansasii [5] = test: Antimycobacterial activity against Mycobacterium kansasii CNCTC My 235/80 after 7 days by micromethod; type: functional; settings: CNCTC My 235/80, 168 h
Mycobacterium kansasii [6] = test: Antimycobacterial activity against Mycobacterium kansasii CNCTC My 235/80 after 14 days by micromethod; type: functional; settings: CNCTC My 235/80, 336 h
Mycobacterium kansasii [7] = test: Antimycobacterial activity against Mycobacterium kansasii CNCTC My 235/80 after 21 days by micromethod; type: functional; settings: CNCTC My 235/80, 504 h
Mycobacterium kansasii [8] = test: Antimycobacterial activity against Mycobacterium kansasii isolate 6509/96 after 7 days by micromethod; type: functional; settings: isolate 6509/96, 168 h
Mycobacterium kansasii [9] = test: Antimycobacterial activity against Mycobacterium kansasii isolate 6509/96 after 14 days by micromethod; type: functional; settings: isolate 6509/96, 336 h
Mycobacterium kansasii [10] = test: Antimycobacterial activity against Mycobacterium kansasii isolate 6509/96 after 21 days by micromethod; type: functional; settings: isolate 6509/96, 504 h
CHO-K1 = test: Cytotoxicity against CHOK1 cells after 24 hrs by MTT assay; type: cell-based; settings: Cricetulus griseus, CHO-K1, 24 h
Staphylococcus aureus [11] = test: Antibacterial activity against Staphylococcus aureus ATCC 6538 after 24 hrs by broth microdilution method; type: functional; settings: ATCC 6538, 24 h
Staphylococcus aureus [12] = test: Antibacterial activity against Staphylococcus aureus ATCC 6538 after 48 hrs by broth microdilution method; type: functional; settings: ATCC 6538, 48 h
Staphylococcus aureus [13] = test: Antibacterial activity against methicillin-resistant Staphylococcus aureus HK5996/08 after 24 hrs by broth microdilution method; type: functional; settings: HK5996/08, 24 h
Staphylococcus aureus [14] = test: Antibacterial activity against methicillin-resistant Staphylococcus aureus HK5996/08 after 48 hrs by broth microdilution method; type: functional; settings: HK5996/08, 48 h
[15] = test system: Staphylococcus epidermidis; test: Antibacterial activity against Staphylococcus epidermidis HK6966/08 after 24 hrs by broth microdilution method; type: functional; settings: HK6966/08, 24 h
[16] = test system: Staphylococcus epidermidis; test: Antibacterial activity against Staphylococcus epidermidis HK6966/08 after 48 hrs by broth microdilution method; type: functional; settings: HK6966/08, 48 h
Enterococcus sp. [17] = test: Antibacterial activity against Enterococcus sp. HK14365/08 after 24 hrs by broth microdilution method; type: functional; settings: HK14365/08, 24 h
Enterococcus sp. [18] = test: Antibacterial activity against Enterococcus sp. HK14365/08 after 48 hrs by broth microdilution method; type: functional; settings: HK14365/08, 48 h
Escherichia coli [19] = test: Antibacterial activity against Escherichia coli ATCC 8739 after 24 hrs by broth microdilution method; type: functional; settings: ATCC 8739, 24 h
Escherichia coli [20] = test: Antibacterial activity against Escherichia coli ATCC 8739 after 48 hrs by broth microdilution method; type: functional; settings: ATCC 8739, 48 h
Klebsiella pneumoniae [21] = test: Antibacterial activity against Klebsiella pneumoniae HK11750/08 after 24 hrs by broth microdilution method; type: functional; settings: HK11750/08, 24 h
Klebsiella pneumoniae [22] = test: Antibacterial activity against Klebsiella pneumoniae HK11750/08 after 48 hrs by broth microdilution method; type: functional; settings: HK11750/08, 48 h
Klebsiella pneumoniae [23] = test: Antibacterial activity against extended spectrum beta-lactamase producing Klebsiella pneumoniae HK14368/08 after 24 hrs by broth microdilution method; type: functional; settings: HK14368/08, 24 h
Klebsiella pneumoniae [24] = test: Antibacterial activity against extended spectrum beta-lactamase producing Klebsiella pneumoniae HK14368/08 after 48 hrs by broth microdilution method; type: functional; settings: HK14368/08, 48 h
Pseudomonas aeruginosa [25] = test: Antibacterial activity against Pseudomonas aeruginosa ATCC 9027 after 24 hrs by broth microdilution method; type: functional; settings: ATCC 9027, 24 h
Pseudomonas aeruginosa [26] = test: Antibacterial activity against Pseudomonas aeruginosa ATCC 9027 after 48 hrs by broth microdilution method; type: functional; settings: ATCC 9027, 48 h
Candida albicans [27] = test: Antifungal activity against Candida albicans ATCC 44859 after 24 hrs by broth microdilution method; type: functional; settings: ATCC 44859, 24 h
Candida albicans [28] = test: Antifungal activity against Candida albicans ATCC 44859 after 48 hrs by broth microdilution method; type: functional; settings: ATCC 44859, 48 h
Candida tropicalis [29] = test: Antifungal activity against Candida tropicalis 156 after 24 hrs by broth microdilution method; type: functional; settings: Candida tropicalis, 156, 24 h
Candida tropicalis [30] = test: Antifungal activity against Candida tropicalis 156 after 48 hrs by broth microdilution method; type: functional; settings: Candida tropicalis, 156, 48 h
Pichia kudriavzevii [31] = test: Antifungal activity against Candida krusei E28 after 24 hrs by broth microdilution method; type: functional; settings: E28, 24 h
Pichia kudriavzevii [32] = test: Antifungal activity against Candida krusei E28 after 48 hrs by broth microdilution method; type: functional; settings: E28, 48 h
Nakaseomyces glabratus [33] = test: Antifungal activity against Candida glabrata 20/I after 24 hrs by broth microdilution method; type: functional
Nakaseomyces glabratus [34] = test: Antifungal activity against Candida glabrata 20/I after 48 hrs by broth microdilution method; type: functional
Trichosporon asahii [35] = test: Antifungal activity against Trichosporon asahii 1188 after 24 hrs by broth microdilution method; type: functional; settings: Trichosporon asahii, 1188, 24 h
Trichosporon asahii [36] = test: Antifungal activity against Trichosporon asahii 1188 after 48 hrs by broth microdilution method; type: functional; settings: Trichosporon asahii, 1188, 48 h
Aspergillus fumigatus [37] = test: Antifungal activity against Aspergillus fumigatus 231 after 24 hrs by broth microdilution method; type: functional; settings: Aspergillus fumigatus, 231, 24 h
Aspergillus fumigatus [38] = test: Antifungal activity against Aspergillus fumigatus 231 after 48 hrs by broth microdilution method; type: functional; settings: Aspergillus fumigatus, 231, 48 h
Lichtheimia corymbifera [39] = test: Antifungal activity against Absidia corymbifera 272 after 24 hrs by broth microdilution method; type: functional; settings: Lichtheimia corymbifera, 272, 24 h
Lichtheimia corymbifera [40] = test: Antifungal activity against Absidia corymbifera 272 after 48 hrs by broth microdilution method; type: functional; settings: Lichtheimia corymbifera, 272, 48 h
[41] = test system: Trichophyton mentagrophytes; test: Antifungal activity against Trichophyton mentagrophytes 445 after 72 hrs by broth microdilution method; type: functional; settings: Trichophyton mentagrophytes, 445, 72 h
[42] = test system: Trichophyton mentagrophytes; test: Antifungal activity against Trichophyton mentagrophytes 445 after 120 hrs by broth microdilution method; type: functional; settings: Trichophyton mentagrophytes, 445, 120 h

Structure (SMILES): O=[N+]([O-])c1cc(-c2nnn(Cc3cccc(Br)c3)n2)cc([N+](=O)[O-])c1
- MIC99 [1]: 0.25 µM (≈ 0.101 µg/mL)
- MIC99 [2]: 0.25 µM (≈ 0.101 µg/mL)
- MIC99 (Mycobacterium avium [3]): 4 µM (≈ 1.62 µg/mL)
- MIC99 (Mycobacterium avium [4]): 8 µM (≈ 3.24 µg/mL)
- MIC99 (Mycobacterium kansasii [5]): 1 µM (≈ 0.405 µg/mL)
- MIC99 (Mycobacterium kansasii [6]): 2 µM (≈ 0.81 µg/mL)
- MIC99 (Mycobacterium kansasii [7]): 2 µM (≈ 0.81 µg/mL)
- MIC99 (Mycobacterium kansasii [8]): 0.5 µM (≈ 0.203 µg/mL)
- MIC99 (Mycobacterium kansasii [9]): 1 µM (≈ 0.405 µg/mL)
- MIC99 (Mycobacterium kansasii [10]): 2 µM (≈ 0.81 µg/mL)
- IC50 (CHO-K1): 29 µM
- MIC (Staphylococcus aureus [11]): 250 µM (≈ 101 µg/mL)
- MIC (Staphylococcus aureus [12]): 250 µM (≈ 101 µg/mL)
- MIC (Staphylococcus aureus [13]): > 500 µM
- MIC (Staphylococcus aureus [14]): > 500 µM
- MIC [15]: 250 µM (≈ 101 µg/mL)
- MIC [16]: 250 µM (≈ 101 µg/mL)
- MIC (Enterococcus sp. [17]): > 500 µM
- MIC (Enterococcus sp. [18]): > 500 µM
- MIC (Escherichia coli [19]): > 500 µM
- MIC (Escherichia coli [20]): > 500 µM
- MIC (Klebsiella pneumoniae [21]): > 500 µM
- MIC (Klebsiella pneumoniae [22]): > 500 µM
- MIC (Klebsiella pneumoniae [23]): > 500 µM
- MIC (Klebsiella pneumoniae [24]): > 500 µM
- MIC (Pseudomonas aeruginosa [25]): > 500 µM
- MIC (Pseudomonas aeruginosa [26]): > 500 µM
- MIC (Candida albicans [27]): > 500 µM
- MIC (Candida albicans [28]): > 500 µM
- MIC (Candida tropicalis [29]): > 500 µM
- MIC (Candida tropicalis [30]): > 500 µM
- MIC (Pichia kudriavzevii [31]): > 500 µM
- MIC (Pichia kudriavzevii [32]): > 500 µM
- MIC (Nakaseomyces glabratus [33]): > 500 µM
- MIC (Nakaseomyces glabratus [34]): > 500 µM
- MIC (Trichosporon asahii [35]): > 500 µM
- MIC (Trichosporon asahii [36]): > 500 µM
- MIC (Aspergillus fumigatus [37]): > 500 µM
- MIC (Aspergillus fumigatus [38]): > 500 µM
- MIC (Lichtheimia corymbifera [39]): > 500 µM
- MIC (Lichtheimia corymbifera [40]): > 500 µM
- MIC [41]: > 500 µM
- MIC [42]: > 500 µM

Structure (SMILES): Cc1ccc(Cn2nnc(-c3cc([N+](=O)[O-])cc([N+](=O)[O-])c3)n2)cc1
- MIC99 [1]: 0.125 µM (≈ 0.0425 µg/mL)
- MIC99 [2]: 0.125 µM (≈ 0.0425 µg/mL)
- MIC99 (Mycobacterium avium [3]): 8 µM (≈ 2.72 µg/mL)
- MIC99 (Mycobacterium avium [4]): 16 µM (≈ 5.44 µg/mL)
- MIC99 (Mycobacterium kansasii [5]): 0.5 µM (≈ 0.17 µg/mL)
- MIC99 (Mycobacterium kansasii [6]): 1 µM (≈ 0.34 µg/mL)
- MIC99 (Mycobacterium kansasii [7]): 1 µM (≈ 0.34 µg/mL)
- MIC99 (Mycobacterium kansasii [8]): 0.25 µM (≈ 0.0851 µg/mL)
- MIC99 (Mycobacterium kansasii [9]): 0.5 µM (≈ 0.17 µg/mL)
- MIC99 (Mycobacterium kansasii [10]): 0.5 µM (≈ 0.17 µg/mL)
- IC50 (CHO-K1): 200 µM
- MIC (Staphylococcus aureus [11]): 31.2 µM (≈ 10.6 µg/mL)
- MIC (Staphylococcus aureus [12]): 31.2 µM (≈ 10.6 µg/mL)
- MIC (Staphylococcus aureus [13]): > 500 µM
- MIC (Staphylococcus aureus [14]): > 500 µM
- MIC [15]: 62.5 µM (≈ 21.3 µg/mL)
- MIC [16]: 62.5 µM (≈ 21.3 µg/mL)
- MIC (Enterococcus sp. [17]): > 500 µM
- MIC (Enterococcus sp. [18]): > 500 µM
- MIC (Escherichia coli [19]): > 500 µM
- MIC (Escherichia coli [20]): > 500 µM
- MIC (Klebsiella pneumoniae [21]): > 500 µM
- MIC (Klebsiella pneumoniae [22]): > 500 µM
- MIC (Klebsiella pneumoniae [23]): > 500 µM
- MIC (Klebsiella pneumoniae [24]): > 500 µM
- MIC (Pseudomonas aeruginosa [25]): > 500 µM
- MIC (Pseudomonas aeruginosa [26]): > 500 µM
- MIC (Candida albicans [27]): > 500 µM
- MIC (Candida albicans [28]): > 500 µM
- MIC (Candida tropicalis [29]): > 500 µM
- MIC (Candida tropicalis [30]): > 500 µM
- MIC (Pichia kudriavzevii [31]): > 500 µM
- MIC (Pichia kudriavzevii [32]): > 500 µM
- MIC (Nakaseomyces glabratus [33]): > 500 µM
- MIC (Nakaseomyces glabratus [34]): > 500 µM
- MIC (Trichosporon asahii [35]): > 500 µM
- MIC (Trichosporon asahii [36]): > 500 µM
- MIC (Aspergillus fumigatus [37]): > 500 µM
- MIC (Aspergillus fumigatus [38]): > 500 µM
- MIC (Lichtheimia corymbifera [39]): > 500 µM
- MIC (Lichtheimia corymbifera [40]): > 500 µM
- MIC [41]: > 500 µM
- MIC [42]: > 500 µM
